Experimental data published in patent US8404718B2, “Combinations of pyrazole kinase inhibitors” (Astex Therapeutics Limited, priority 2005, dated 2013).

Columns and labels:
Activated CDK2/CyclinA = Activated CDK2/CyclinA (Homo sapiens, UniProt P24941); experiment: Activated CDK2/CyclinA kinase inhibitory activity assay (IC50), Example 250A; type: biochemical
Procedure: Compounds of the invention were tested for kinase inhibitory activity using the following protocol.
The reaction is allowed to proceed for 2 to 4 hours before being stopped with an excess of ortho-phosphoric acid (5 μl at 2%).
γ^33P-ATP which remains unincorporated into the histone H1 is separated from phosphorylated histone H1 on a Millipore MAPH filter plate. The wells of the MAPH plate are wetted with 0.5% orthophosphoric acid, and then the results of the reaction are filtered with a Millipore vacuum filtration unit through the wells. Following filtration, the residue is washed twice with 200 μl of 0.5% orthophosphoric acid. Once the filters have dried, 20 μl of Microscint 20 scintillant is added, and then counted on a Packard Topcount for 30 seconds.

[1] = test system: human colon carcinoma cell line HCT 116; experiment: Anti-proliferative activity, Alamar Blue assay; type: cell-based; conditions: 72 hours compound incubation, read-out: IC50, inhibition of cell growth, HCT 116
Procedure: The anti-proliferative activities of the combinations of the invention, as well as the individual components of the combinations, are determined by measuring the ability of the compounds to inhibition of cell growth in a number of cell lines. Inhibition of cell growth is measured using the Alamar Blue assay (Nociari, M. M, Shalev, A., Benias, P., Russo, C. Journal of Immunological Methods 1998, 213, 157-167). The method is based on the ability of viable cells to reduce resazurin to its fluorescent product resorufin. For each proliferation assay cells are plated onto 96 well plates and allowed to recover for 16 hours prior to the addition of inhibitor compounds for a further 72 hours. At the end of the incubation period 10% (v/v) Alamar Blue is added and incubated for a further 6 hours prior to determination of fluorescent product at […]. In the case of the non-proliferating cell assay cells are maintained at confluence for 96 hour prior to the addition of inhibitor compounds for a further 72 hours. The number of viable cells is determined by Alamar Blue assay as before. All cell lines are obtained from ECACC (European Collection of cell Cultures).

IC50 (Activated CDK2/CyclinA) [µM]	IC50 [1] [µM]	SMILES
< 20	< 20	C[N+]1([O-])CCC(NC(=O)c2n[nH]cc2NC(=O)c2c(F)cccc2F)CC1 (centres unmarked) [Example 162]
< 20	< 20	CC(C)(C)OC(=O)N1CCC(NC(=O)c2n[nH]cc2NC(=O)c2c(F)cc(F)cc2F)CC1 [Example 136]
< 20	< 20	O=C(NC1CCC(CO)CC1)c1n[nH]cc1NC(=O)c1c(F)cccc1F (centres unmarked) [Example 120]
< 20	< 20	O=C(Nc1c[nH]nc1C(=O)NC1CCNCC1)c1ccccc1OCc1ccccc1 [Example 200]
< 20	< 20	CN1CCC(NC(=O)c2n[nH]cc2NC(=O)c2ccccc2Cl)CC1 [Example 211]
< 20	< 20	COc1cccc(F)c1C(=O)Nc1c[nH]nc1C(=O)NC1CCN(C)CC1 [Example 202]
< 20	< 20	O=C(NC1CCN(c2ccccn2)CC1)c1n[nH]cc1NC(=O)c1c(F)cccc1F [Example 112]
< 20	< 20	O=C(Nc1c[nH]nc1C(=O)NCC1CC1)c1cccc2c1OCCO2 [Example 178]
< 20	< 20	O=C(NC1CCN(c2ncccn2)CC1)c1n[nH]cc1NC(=O)c1c(F)cccc1F [Example 110]
< 20	< 20	CN(C)[C@H]1CC[C@H](NC(=O)c2n[nH]cc2NC(=O)c2c(F)cccc2F)CC1 [Example 124]
< 20	< 100	CC(NC(=O)c1n[nH]cc1NC(=O)c1c(F)cccc1F)c1ccccc1 (centres unmarked) [Example 108]
< 20	< 20	O=C(NC1CCNCC1)c1n[nH]cc1NC(=O)c1c(Cl)cncc1Cl [Example 194]
< 20	< 20	CCOc1ccccc1C(=O)Nc1c[nH]nc1C(=O)NC1CCNCC1 [Example 198]
< 20	< 20	O=C(Nc1c[nH]nc1C(=O)N[C@H]1CC[C@H](O)CC1)c1cccc2c1OCCO2 [Example 159]
< 20	< 20	O=C(NCc1ccco1)c1n[nH]cc1NC(=O)c1c(F)cccc1F [Example 107]
< 20	< 20	O=C(N[C@H]1CC[C@H](NC2CCOCC2)CC1)c1n[nH]cc1NC(=O)c1c(F)cccc1F [Example 116]
< 20	< 20	CN1CCC(NC(=O)c2n[nH]cc2NC(=O)c2cc(Cl)ccc2Cl)CC1 [Example 212]
< 20	< 20	O=C(Nc1c[nH]nc1C(=O)NC1CCNCC1)c1ccccc1OC(F)(F)F [Example 196]
< 20	< 20	O=C(NC1CCN(CC(F)(F)F)CC1)c1n[nH]cc1NC(=O)c1c(F)cccc1F [Example 114]
< 20	< 20	COCCN1CCC(NC(=O)c2n[nH]cc2NC(=O)c2c(F)cccc2F)CC1 [Example 125]
< 20	< 20	O=C(NC1CCN(c2cccc(Cl)n2)CC1)c1n[nH]cc1NC(=O)c1c(F)cccc1F [Example 115]

IC50 (Activated CDK2/CyclinA) [µM]	IC50 [1] [µM]	SMILES
< 20	< 20	CN1CCC(NC(=O)c2n[nH]cc2NC(=O)c2cccc(Cl)c2Cl)CC1 [Example 213]
< 20	< 20	CC1CCC(NC(=O)c2n[nH]cc2NC(=O)c2c(F)cccc2F)CC1 (centres unmarked) [Example 113]
< 20	< 20	COc1cccc(F)c1C(=O)Nc1c[nH]nc1C(=O)N[C@H]1CC[C@H](O)CC1 [Example 154]
< 20	< 20	O=C(N[C@H]1CC[C@H](N2CCOCC2)CC1)c1n[nH]cc1NC(=O)c1c(F)cccc1F [Example 167]
< 20	< 20	CO[C@H]1CC[C@H](NC(=O)c2n[nH]cc2NC(=O)c2c(F)cccc2F)CC1 [Example 137]
< 20	< 20	O=C(NC1CCNCC1)c1n[nH]cc1NC(=O)c1c(F)cc(F)cc1F [Example 148]
< 20	< 20	O=C(N[C@H]1CCCNC1)c1n[nH]cc1NC(=O)c1c(F)cccc1F [Example 152]
< 20	< 20	O=C(Nc1c[nH]nc1C(=O)NC1CCNCC1)c1ccccc1N1CCOCC1 [Example 199]
< 20	< 20	O=C(Nc1c[nH]nc1C(=O)NC1CCNCC1)c1ccccc1Br [Example 201]
< 20	< 20	CN1CCC(NC(=O)c2n[nH]cc2NC(=O)c2c(Cl)cccc2Cl)CC1 [Example 187]
< 20	< 20	NC[C@H]1CC[C@H](NC(=O)c2n[nH]cc2NC(=O)c2c(F)cccc2F)CC1 [Example 163]
< 20	< 20	CC(C)(C)N1CCC(NC(=O)c2n[nH]cc2NC(=O)c2c(F)cccc2F)CC1 [Example 179]
< 20	< 20	O=C(NCc1cccnc1)c1n[nH]cc1NC(=O)c1c(F)cccc1F [Example 103]
< 20	< 100	Cc1nn(C)c(C)c1CNC(=O)c1n[nH]cc1NC(=O)c1c(F)cccc1F [Example 99]
< 20	< 20	COc1ccc(F)cc1C(=O)Nc1c[nH]nc1C(=O)NC1CCN(C)CC1 [Example 204]
< 20	< 20	COc1ccccc1C(=O)Nc1c[nH]nc1C(=O)N[C@H]1CC[C@H](O)CC1 [Example 153]
< 20	< 20	O=C(NCC1CCNCC1)c1n[nH]cc1NC(=O)c1c(F)cccc1F [Example 111]
< 20	< 20	O=C(NCc1ccncc1)c1n[nH]cc1NC(=O)c1c(F)cccc1F [Example 104]
< 20	< 20	CN1CCC(NC(=O)c2n[nH]cc2NC(=O)c2c(F)cccc2Cl)CC1 [Example 186]
< 20	< 20	COc1ccccc1CNC(=O)c1n[nH]cc1NC(=O)c1c(F)cccc1F [Example 96]
< 20	< 20	O=C(NC1CCN(CC2CCOC2)CC1)c1n[nH]cc1NC(=O)c1c(F)cccc1F (centres unmarked) [Example 133]

IC50 (Activated CDK2/CyclinA) [µM]	IC50 [1] [µM]	SMILES
< 20	< 20	COc1cscc1C(=O)Nc1c[nH]nc1C(=O)N[C@H]1CC[C@H](O)CC1 [Example 158]
< 20	< 20	O=C(NCC1CCCO1)c1n[nH]cc1NC(=O)c1c(F)cccc1F (centres unmarked) [Example 100]
< 20	< 20	COc1ccccc1C(=O)Nc1c[nH]nc1C(=O)NC1CCNCC1 [Example 190]
< 20	< 20	CS(=O)(=O)NC[C@H]1CC[C@H](NC(=O)c2n[nH]cc2NC(=O)c2c(F)cccc2F)CC1 [Example 164]
< 20	< 20	Cc1ccc(C(=O)Nc2c[nH]nc2C(=O)NC2CCN(C)CC2)cc1 [Example 189]
< 20	< 20	O=C(NC1CCN(CC2CC2)CC1)c1n[nH]cc1NC(=O)c1c(F)cccc1F [Example 109]
< 20	< 100	O=C(Nc1c[nH]nc1C(=O)NCC1CC1)c1ccc(N2CCOCC2)cc1Cl [Example 182]
< 20	< 20	Cc1cc(CNC(=O)c2n[nH]cc2NC(=O)c2c(F)cccc2F)no1 [Example 101]
< 20	< 20	O=C(N[C@H]1CC[C@H](O)CC1)c1n[nH]cc1NC(=O)c1c(F)cccc1Cl [Example 155]
< 20	< 20	O=C(NC1CCC(N2CCSCC2)CC1)c1n[nH]cc1NC(=O)c1c(F)cccc1F (centres unmarked) [Example 121]
< 20	–	CO[C@H]1CC[C@H](NC(=O)c2n[nH]cc2NC(=O)c2c(Cl)cccc2Cl)CC1 [Example 210]
< 20	< 20	CN1CCN(c2cc(F)cc(C(=O)Nc3c[nH]nc3C(=O)NC3CCCCC3)c2)CC1 [Example 215]
< 20	< 20	O=C(N[C@H]1CCCNC1)c1n[nH]cc1NC(=O)c1c(Cl)cccc1Cl [Example 208]
< 20	< 100	O=C(Nc1c[nH]nc1C(=O)N[C@H]1CC[C@H](O)CC1)Nc1c(F)cccc1F [Example 160]
< 20	< 20	O=C(N[C@H]1CC[C@H](N2CCS(=O)(=O)CC2)CC1)c1n[nH]cc1NC(=O)c1c(F)cccc1F [Example 132]
< 20	< 20	CN1CCC(NC(=O)c2n[nH]cc2NC(=O)c2ccccc2OC(C)(C)C)CC1 [Example 203]
< 20	–	CC(C)(C)CNC(=O)Nc1c[nH]nc1C(=O)N[C@H]1CC[C@H](O)CC1 [Example 169]
< 20	–	CC(C)(C)OC(=O)N1CCC(NC(=O)c2n[nH]cc2NC(=O)c2ccccc2)CC1 [Example 172]
< 20	< 20	CN1CCN([C@H]2CC[C@@H](NC(=O)c3n[nH]cc3NC(=O)c3c(F)cccc3F)CC2)CC1 [Example 118]
